{"source": "patent US10273290B2", "about": "“Hydrocarbon double-stapled stabilized HIV-1 GP41 heptad repeat domain peptides” (DANA-FARBER CANCER INSTITUTE, INC., priority 2009, dated 2019)", "key": {"[1]": {"test_system": "resistant primary R5 isolate YU2", "assay": "Luciferase-based HIV-1 infectivity assay, YU2", "assay_type": "cell-based", "conditions": "compared to T649v", "text": "Also the direct inhibitory activity of modified polypeptides and the antibodies targeted thereto can be quantified based upon their capacity to directly block HIV infection of CD4-positive and CCR5-expressing canine thymus cells. Recombinant HIV-1 viruses (eg. HXBc2, YU2, and additional strains available through the NIH AIDS Research and Reference Reagent Program) expressing firefly luciferase and containing the indicated envelope glycoproteins can be used to infect Cf2Th-CD4-CCR5/CXCR4 cells in the presence of serially diluted modified HIV-1 gp41 polypeptides or antibodies targeted thereto After 48 hours, the cells are lysed and luciferase activity is quantified (Si, Z. H., M. Cayabyab, and J. Sodroski, Journal of Virology, 2001. 75(9): p. 4208-4218 Si, Z. H., et al., PNAS, 2004. 101(14): p. 5036-5041). The identical experiment is performed with the amphotropic murine leukemia virus (AMLV), to monitor for any nonspecific effects of the modified polypeptides or antibodies. […]\nHIV-1 infectivity assays were performed using known methods (Madani et al., 2007 Inhibition of human immunodeficiency virus envelope glycoprotein-mediated single cell lysis by low-molecular-weight antagonists of viral entry. J Virol, 81: 532-538; and Si et al., 2001 Envelope glycoprotein determinants of neutralization resistance in a simian-human immunodeficiency virus (SHIV-HXBc2P 3.2) derived by passage in monkeys. J Virol, 75:4208-4218; both incorporated herein by reference). […] D-luciferin (50 μL of 1 mM stock in 100 μL luciferin buffer) is then added to each well and luciferase activity measured using a luminometer (EG&G Berthold).\nTo assess the functional impact of hydrocarbon stapling on gp41-based fusion inhibitor activity, SAH-gp41 peptides were tested and compared to their unmodified counterparts in a luciferase-based HIV-1 infectivity assay. Recombinant HIV-1 bearing the envelope glycoproteins from three distinct HIV-1 strains, HXBc2, ADA, and HXBc2P 3.2, and a negative control virus bearing the amphotropic murine leukemia virus (A-MLV) envelope glycoproteins, were evaluated. […]"}, "pepsin": {"test_system": "pepsin", "assay": "Protease resistance assay, pepsin at pH 2", "summary_of_the_method": "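Peptide from a 1 mM DMSO stock was incubated with pepsin in its appropriate buffer. Intact peptide was quantified over time by serial LC-MS injections, normalized to a 100 μM acetylated tryptophan carboxamide internal standard. Half-life came from nonlinear regression of the exponential decay.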"}}, "note": "Bridge positions count the residues as written; N and C are the ends. Square brackets hold non-standard residues; d marks the D form. Peptide text beside a SMILES is read from it. S5 = C=CCCC[C@](C)(N)C(=O)O; Nle = CCCC[C@H](N)C(=O)O", "data": [{"molecule": "CCCC[C@H](NC(C)=O)C(=O)N[C@H](C(=O)N[C@@H](Cc1c[nH]c2ccccc12)C(=O)N[C@@]1(C)CCCC=CCCC[C@@](C)(C(=O)N[C@@H](CCC(=O)O)C(=O)N[C@H](C(=O)N[C@@H](CC(N)=O)C(=O)N[C@@H](CC(N)=O)C(=O)N[C@@H](Cc2ccc(O)cc2)C(=O)N[C@H](C(=O)N[C@@H](CO)C(=O)N[C@@H](CC(C)C)C(=O)N[C@H](C(=O)N[C@@H](Cc2c[nH]cn2)C(=O)N[C@@H](CO)C(=O)N[C@@H](CC(C)C)C(=O)N[C@H](C(=O)N[C@@H](CCC(=O)O)C(=O)N[C@@H](CCC(=O)O)C(=O)N[C@@H](CO)C(=O)N[C@@H](CCC(N)=O)C(=O)N[C@@H](CC(N)=O)C(=O)N[C@@H](CCC(N)=O)C(=O)N[C@@]2(C)CCCC=CCCC[C@@](C)(C(=O)N[C@@H](CCC(N)=O)C(=O)N[C@@H](CCC(=O)O)C(=O)N[C@@H](CC(C)C)C(=O)N[C@@H](CC(C)C)C(=O)N[C@@H](CCC(=O)O)C(N)=O)NC(=O)[C@H](CC(N)=O)NC(=O)[C@H](CCCCN)NC(=O)[C@H](CCC(=O)O)NC2=O)[C@@H](C)CC)[C@@H](C)CC)[C@@H](C)O)[C@@H](C)CC)NC(=O)[C@H](CC(=O)O)NC(=O)[C@H](Cc2c[nH]c3ccccc23)NC(=O)[C@H](CCC(=O)O)NC1=O)[C@@H](C)O", "note": "[SAH-gp41(626-662)(A, F)] (Ac-[Nle]TW[S5]EWD[S5]EINNYTSLIHSLIEESQNQ[S5]EKN[S5]QELLE-NH2; staple 4-8, 28-32; N-terminus and C-terminus assumed)", "values": [{"measurement": "anti-YU2 activity, in words", "setting": "[1]", "value": "enhanced anti-YU2 activity"}, {"measurement": "half-life at 25 μM", "setting": "pepsin; pepsin (isolated protease) in buffer, pH 2", "value": 34, "unit": "h"}, {"measurement": "acid protease resistance, in words", "setting": "pepsin; pepsin at pH 2", "value": "striking acid protease resistance"}]}]}
